Experimental data from US6800618B2, “Chemosensitizing agents against chloroquine resistant plasmodium falciparum and methods of making and using thereof” (The United States of America as represented by the …, priority 2001, dated 2004).

Experiments:
TM91C235 = assay: FIC index in TM91C235 isolate; format: cell-based, Plasmodium falciparum; design: key: 1.0 = additive; <1.0 = synergy; >1.0 = antagonism; settings: isolate from Southeast Asia (Thailand); same method as for W-2
Protocol: Fifty percent inhibitory concentrations (IC50s) were determined for each candidate compound alone and for candidate compounds in fixed combinations of their respective IC50s (1:1, 1:3, 3:1). […] The FIC is the actual IC50 of one compound in the presence of a second compound but is expressed as a fraction of its IC50 when used alone. This index is a mathematical representation of the isobologram such that an FIC index of 1.0 represents the line of additive on the isobologram. An FIC index of less than 1.0 represents synergy or potentiation and an FIC index of greater than 1.0 represents antagonism.
The same assay method described above for W-2 was used except that the strains used were isolated from Thailand, Brazil, and Peru, respectively.

[1] = tested on: Plasmodium falciparum W2 clone; assay: FIC index with chloroquine (isobologram analysis) in W2 clone; format: cell-based; design: key: 1.0 = additive; <1.0 = synergy; >1.0 = antagonism; settings: 1:1 combination of drug and chloroquine; chloroquine-resistant W2 clone
Protocol: In brief, the assay is based on the incorporation of radiolabeled hypoxanthine by the parasites and inhibition of isotope incorporation is attributed to activity of known or candidate antimalarial drugs. For each assay, proven antimalarials, such as chloroquine, mefloquine, quinine, artemisinin, pyrimethamine and sulfadoxine, were used as controls. The incubation period was 66 hours and the starting parasitemia was 0.2% with a 1% hematocrit. […] Albumax may be used instead of 10% normal heat inactivated human plasma.
(§1) 25 μl of each diluted candidate compound was then transferred to test plates, 200 μl of parasitized erythrocytes (0.2% parasitemia and 1% hematocrit) were added, and incubated at 37° C. in a controlled environment of 5% CO2, 5% O2 and 90% N2. After 42 hours, 25 μl of ^3H-hypoxanthine was added and the plates were incubated for an additional 24 hours. At the end of the 66 hour incubation period, the plates were frozen at −70° C. to lyse the red cells and later thawed and harvested onto glass fiber filter mats by using a 96-well cell harvester. The filter mats were then counted in a scintillation counter and the data was analyzed.
The FIC is the actual IC50 of one compound in the presence of a second compound but is expressed as a fraction of its IC50 when used alone. This index is a mathematical representation of the isobologram such that an FIC index of 1.0 represents the line of additive on the isobologram. An FIC index of less than 1.0 represents synergy or potentiation and an FIC index of greater than 1.0 represents antagonism.
In the isobologram graphs as shown in FIGS. 1-3, the x-axis is fractional inhibitory concentration (FIC) of chloroquine and the y-axis is FIC of chemosensitizing agent. The FIC is the actual IC50 of one drug in the presence of the second drug but is expressed as a fraction of its IC50 when used alone. If the isobologram graph is a straight line, it represents an additive effect of the two drugs. If the graph forms a concave curve below the line, it indicates synergy or potentiation of the combination. Below the line means synergy or potentiation and above the line means antagonism.

RCS = assay: FIC index in RCS isolate; format: cell-based, Plasmodium falciparum; design: key: 1.0 = additive; <1.0 synergy; >1.0 antagonism; settings: isolate from Brazil; same method as for W-2
Protocol: (§2) Fifty percent inhibitory concentrations (IC50s) were determined for each candidate compound alone and for candidate compounds in fixed combinations of their respective IC50s (1:1, 1:3, 3:1). […] See Elion, G. V., et al. (1954) J Biol Chem 208:477-488, which is herein incorporated by reference. The FIC is the actual IC50 of one compound in the presence of a second compound but is expressed as a fraction of its IC50 when used alone. This index is a mathematical representation of the isobologram such that an FIC index of 1.0 represents the line of additive on the isobologram. An FIC index of less than 1.0 represents synergy or potentiation and an FIC index of greater than 1.0 represents antagonism.
(§3) Parasites from different regions responded differently to the compounds of the present invention. The same assay method described above for W-2 was used except that the strains used were isolated from Thailand, Brazil, and Peru, respectively.

TM91C235 cells = assay: In vitro reversal activity (cell growth suppression, 3H-hypoxanthine incorporation) in TM91C235 cells; format: cell-based, Plasmodium falciparum; settings: for Control % sup: test compounds only
From the text: For quantitative in vitro drug susceptibility testing, two well characterized P. falciparum clones, W2 and D6, were used. See Oduola et al. (1988) Exp Parasitol 66:86-95, which is herein incorporated by reference. W2 is a clone of the Indochina I isolate and is resistant to chloroquine and pyrimethamine, but susceptible to mefloquine. D6 is a clone from the Sierra I/UNC isolate and is susceptible to chloroquine and pyrimethamine, but has reduced susceptibilities to mefloquine and halofantrine. TM91C235 was isolates from Thailand and is highly resistant to mefloquine, chloroquine, and quinine.
The in vitro antimalarial drug susceptibility assay used is a modification of the procedures first published by Desjardins, et al. with modifications developed by Milhous, et al. See Desjardins, R. E., et al. (1979) Antimicrobial Agents Chemother 16:710-718; and Milhous, et al. (1985) Antimicrobial Agents Chemother 27:525-530, which are herein incorporated by reference. In brief, the assay is based on the incorporation of radiolabeled hypoxanthine by the parasites and inhibition of isotope incorporation is attributed to activity of known or candidate antimalarial drugs. For each assay, proven antimalarials, such as chloroquine, mefloquine, quinine, artemisinin, pyrimethamine and sulfadoxine, were used as controls. The incubation period was 66 hours and the starting parasitemia was 0.2% with a 1% hematocrit. The media used was RPMI-1640 culture media with no folate or p-aminobenzoic acid (PABA). Albumax may be used instead of 10% normal heat inactivated human plasma.
If a candidate compound was tested without any prior knowledge of its activity or solubility, the compound was dissolved directly in dimethylsulfoxide (DMSO) and diluted 400 fold with complete culture media. These unknown compounds were normally started at a highest concentration of about 50,000 ng/ml. The compounds were then diluted 2-fold, 11 times, to give a concentration range of about 1,048-fold. These dilutions were performed automatically by a Biomek 1000 or 2000 Liquid Handling System into 96-well microtiter plates.
as §1
Each of these test compounds were tested under three different concentrations, 5000, 500, and 50 ng/ml, in the presence of 10 ng/ml of chloroquine and 5 ng/ml of mefloquine. […] Thus, the compounds of the present invention may be used to treat, prevent or inhibit drug resistant malaria.

Peruvian PC49 = assay: FIC index in Peruvian PC49 isolate; format: cell-based, Plasmodium falciparum; design: key: 1.0 = additive; <1.0 synergy; >1.0 antagonism; settings: isolate from South America (Peru); same method as for W-2
Protocol: as §2, §3

[2] = test compound 50 ng/ml combined with 5 ng/ml mefloquine
[3] = test compound 50 ng/ml combined with 10 ng/ml chloroquine
[4] = test compound 500 ng/ml combined with 5 ng/ml mefloquine
[5] = test compound 500 ng/ml combined with 10 ng/ml chloroquine
[6] = test compound 5000 ng/ml combined with 5 ng/ml mefloquine
[7] = test compound 5000 ng/ml combined with 10 ng/ml chloroquine

For c1ccc(N(CCCCN2CCCC2)c2ccccc2)cc1 [7t, Diphenyl-(4-pyrrolidin-1-yl-butyl)amine], the “FIC index TM91C235” value (TM91C235) was 0.32, the “FIC (fractional inhibitory concentration) index” value [1] was 0.45 and the “FIC index RCS” value (RCS) was 0.37.
For CCN(CC)CCCC(C)Nc1ccnc2cc(Cl)ccc12 (centres unmarked) [chloroquine], the “cell growth inhibition of TM91C235 cells by drug alone” value (TM91C235 cells; 10 ng/ml of chloroquine alone) was “did not inhibit the cell growth”.
Cc1ccc(CNCCCCN2c3ccccc3Sc3ccccc32)cc1 [7c, 10-(4-Methylbenzylaminobutyl)phenothiazine] was tested, and the “restoring the drug sensitivity of the mefloquine resistant cell line” value (TM91C235 cells; coadministration with mefloquine) was “not very active”, the “Mefloquine % SUP” value (TM91C235 cells; [2]) was 0% and the Chloroquine % sup (TM91C235 cells; [3]) was 14%. For the same compound, the “Mefloquine % SUP” value (TM91C235 cells; [4]) was 0%, the Chloroquine % sup (TM91C235 cells; [5]) was 27% and the “Mefloquine % SUP” value (TM91C235 cells; [6]) was 13%. The Chloroquine % sup (TM91C235 cells; [7]) was 62%, the Control % sup (TM91C235 cells; 50 ng/ml) was 13% and the Control % sup (TM91C235 cells; 500 ng/ml) was 18%. It also gave a Control % sup (TM91C235 cells; 5000 ng/ml) of 35%.
c1ccc2c(c1)Sc1ccccc1N2CCCCN1CCCCC1 [7f, 10-(4-Piperidin-1-yl-butyl)phenothiazine] was tested, and the “FIC index TM91C235” value (TM91C235) was 0.52, the “FIC index Peruvian PC49” value (Peruvian PC49) was 0.83 and the “FIC (fractional inhibitory concentration) index” value [1] was 0.49. For the same compound, the “FIC index RCS” value (RCS) was 0.68.
With CN1CCN(CCCCN2c3ccccc3Sc3ccccc32)CC1 [7h, 10-[4-(4-Methyl-piperazin-1-yl)-butyl]phenothiazine] the “FIC index TM91C235” value (TM91C235) was 0.48, the “FIC index Peruvian PC49” value (Peruvian PC49) was 0.98 and the “FIC (fractional inhibitory concentration) index” value [1] was 0.4. For the same compound, the “FIC index RCS” value (RCS) was 0.49.
With c1ccc2c(c1)Sc1ccccc1N2CCCCN1CCOCC1 [7g, 10-(4-Morpholin-4-yl-butyl)phenothiazine] the “FIC index TM91C235” value (TM91C235) was 0.32, the “FIC index Peruvian PC49” value (Peruvian PC49) was 0.81 and the “FIC (fractional inhibitory concentration) index” value [1] was 0.39. The “FIC index RCS” value (RCS) was 0.37.
With Cc1ccc(CNCCCCN2c3ccccc3CCc3ccccc32)cc1 [7k, 5-(4-Methylbenzylaminobutyl)iminodibenzyl] the “Mefloquine % SUP” value (TM91C235 cells; [2]) was 20%, the Chloroquine % sup (TM91C235 cells; [3]) was 10% and the “Mefloquine % SUP” value (TM91C235 cells; [4]) was 22%. The Chloroquine % sup (TM91C235 cells; [5]) was 20%, the “Mefloquine % SUP” value (TM91C235 cells; [6]) was 41% and the Chloroquine % sup (TM91C235 cells; [7]) was 33%. It also gave a Control % sup (TM91C235 cells; 50 ng/ml) of 30%, a Control % sup (TM91C235 cells; 500 ng/ml) of 32% and a Control % sup (TM91C235 cells; 5000 ng/ml) of 60%.
With CN1CCN(CCCCN2c3ccccc3CCc3ccccc32)CC1 [7p, 5-[4-(4-Methyl-piperazin-1-yl)-butyl]iminodibenzyl] the “FIC index TM91C235” value (TM91C235) was 0.54, the “FIC (fractional inhibitory concentration) index” value [1] was 0.52 and the “FIC index RCS” value (RCS) was 0.66.
